The record followed here is patent US20220289731A1, “MELANOCORTIN-4 RECEPTOR AGONISTS” (LG CHEM, LTD., priority 2019, published 2022).

Each structure is given as a SMILES string.

For experiment [1], the target named is T1, MC4R (Homo sapiens, UniProt P32245). Briefly: Binding affinity, 125I-NDP-α-MSH displacement on membranes. Also noted: expressed in transfected cells; host or cells: HEK-293 cells; membranes collected. The settings on record: HEK-293 MC4R membrane, 0.02 nM 125I-NDP-α-MSH. The text has this:
Five subtypes of melanocortin receptor (MCR) in vivo are known, and it is known that MC4R, which is Subtype 4, is involved in energy metabolism and weight control. Since other MCR subtypes are involved in the regulation of various functions in vivo such as skin pigmentation, energy homeostasis, and exocrine functions, securing selectivity for MC4R of MC4R agonist compounds is very important in preventing possible side effects in the future. Therefore, the receptor binding abilities of MC4R agonists for each MCR subtype were measured.
After the CHO-K1 cell line expressing human recombinant MC1R and the HEK-293 cell lines expressing MC3R, MC4R and MCSR were established, membranes were collected from each cell line. In a 96-well cell culture plate, 3 μg MC1R membrane and 0.04 nM ^125I-NDP-α-MSH per well were reacted at 37° C. for two hours. 3 μg MC3R and MCSR membrane and 0.035 nM ^125I-NDP-α-MSH were reacted at 37° C. for one hour, and 3.12 μg MC4R membrane and 0.02 nM ^125I-NDP-α-MSH were reacted at 37° C. for two hours. At this time, 25 mM HEPES-KOH adsorption buffer (pH 7.0) containing MCR agonist diluted at each step concentration was added to each well and reacted. The reacted solution was transferred to a filter and washed with an adsorption buffer, and then radioactivity was measured. The value excluding the non-specific binding amount in the presence of 1 μM (MC1R) and 3 μM (MC3R, MC4R, MCSR) of NDP-α-MSH from each total binding amount was used as specific binding amounts of ^125I-NDP-α-MSH. The degree to which the ^125I-NDP-α-MSH specific binding was inhibited by the agonist diluted at each step concentration was measured. IC50 was expressed as the concentration of each agonist that inhibited specific binding of 50% of ^125I-NDP-α-MSH.
Target sequence in this assay (P32245 whole entry): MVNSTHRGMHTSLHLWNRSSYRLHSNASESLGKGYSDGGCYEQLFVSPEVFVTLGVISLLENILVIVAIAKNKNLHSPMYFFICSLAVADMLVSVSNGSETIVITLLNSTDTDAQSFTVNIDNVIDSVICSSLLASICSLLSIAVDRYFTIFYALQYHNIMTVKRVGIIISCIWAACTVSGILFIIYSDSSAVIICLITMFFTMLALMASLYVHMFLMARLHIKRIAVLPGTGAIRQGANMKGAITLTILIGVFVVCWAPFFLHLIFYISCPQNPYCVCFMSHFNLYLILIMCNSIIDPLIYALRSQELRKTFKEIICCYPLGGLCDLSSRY

The subject of experiment [2] is mouse obesity model induced by high fat diet. Put plainly: Mouse obesity model induced by high fat diet. Type of experiment: in vivo, C57BL/6Ntaconic mice. The note with it: oral once a day, high-fat-diet obese mice. As to the method: The effect of melanocortin-4 receptor agonists on obesity was evaluated by using the mouse obesity model induced with a high fat diet.
Five-week-old male C57BL/6Ntaconic mice were fed with a 60 kcal % fat diet (D12492, Research Diet.) for 15 weeks to induce obesity. The compound of Example 1, the compounds of the comparative examples (A95 and A96), and sibutramine as a positive control were prepared in distilled water and orally administered to […] mouse obesity models induced by a high-fat diet once a day from day 1 to day 16. From Day 1 to Day 16, the body weight was measured once a day, the dietary intake was measured five times a week, and drinking water intake was measured twice a week. Blood glucose and glycated hemoglobin were measured on Day 15, and all animals were sacrificed on Day 17. Blood was collected through the abdominal vena cava, and the liver and epididymal adipose tissues were removed and weighed. The collected blood was placed in a heparin tube and centrifuged to separate plasma, and then plasma biochemical analysis was performed.

Experiment [3] has as its target T1, MC4R. Put plainly: Luciferase assay (HEK MC4R-Luc, CRE-LUC). The note with it: HEK MC4R-Luc cells, 5 h incubation. The experiment is classed as cell-based. Also on record: expressed in transfected cells. As to the method:
In order to measure the agonist ability against MC4R (melanocortin-4 receptor), a cell line that permanently expresses the luciferase gene (CRE-LUC) under the control of MC4R and CRE (cAMP response element) was established. After a mammalian cell expression vector (pCDNA3 (Neo)) (Invitrogen) containing the MC4R gene was prepared, human embryonic kidney (HEK) cell lines were transformed by using Lipofectamine 2000 (Invitrogen) together with a vector (pCRE-Luc)(Stratagen) expressing a luciferase gene (CRE-LUC) under the control of a cAMP response element (CRE). Transformed cell lines (HEK MC4R-Luc) were incubated in a 37° C. incubator in the presence of 5% CO2 for 24 hours by using Dulbecco's Modified Eagles Medium (DMEM) containing 10% Heat-Inactivated Fetal Bovine Serum (GIBCO/BRL). The cell lines were incubated for four days in the presence of Dulbecco's Modified Eagles Medium (DMEM) containing 10 ml of selection medium (10% Heat-Inactivated Fetal Bovine Serum (GIBCO/BRL), 100 unit/ml of penicillin (GIBCO/BRL), 100 unit/ml of streptomycin (GIBCO/BRL), 800 μg/ml of Geneticin (G418) (GIBCO/BRL). The process of removing cells killed by the selection medium by replacing the medium with 10 ml of a new selection medium was repeated three times, once every 4 days. Individual colonies formed by the finally selected and propagated clones were transferred under a microscope to a 24-well cell culture plate containing 1 ml of selection medium per well and incubated for 4 days. Forskolin (SIGMA) was treated to a final concentration of 10 μM, and then incubated for five hours in a 37° C. incubator in the presence of 5% CO2. Each well was treated with 50 μl of a Bright-Glo luciferase reagent (Promega) and left at room temperature for 15 minutes, and then the luminescence of each well was measured by using a luminometer (Victor).
HEK MC4R-Luc cells were added to each well of a 96-well luminometer cell culture plate (Costar) to a size of 2.5×10^4 cells in 100 μl of a culture medium and then incubated in a 37° C. incubator in the presence of 6% CO2 for 18 hours. […] Each well was treated with 50 μl of a Bright-Glo luciferase reagent (Promega) and left at room temperature for five minutes, and then the luminescence of each well was measured by using a luminometer (Victor). […] EC0.5 MSH is expressed as a concentration that induces 50% of the maximum amount of luminescence that can be induced by NDP-α-MSH, and EC50 is expressed as a concentration that induces 50% of the maximum amount of luminescence that can be induced by each agonist. The measurements were measured using statistical software (Prizm).
Target sequence in this assay (P32245 whole entry, species assumed): as the sequence (P32245 whole entry) above

What is called Ki is a dissociation constant, usually derived from enzyme kinetics or from competition with a known ligand. Read a low Ki as a stronger hold on the target. One may read the EC50 as the midpoint of the concentration-response curve. Molecule `CC(=O)N(C1CCC(C)(C)CC1)[C@H]1C[C@@H](C(=O)N2CCOCC2)N(C(=O)[C@@H]2CN(C(C)(C)C)C[C@H]2c2ccc(F)cc2F)C1.Cl` [Comparative Example 1 (A95), N-((3S,5S)-1-((3S,4R)-1-(tert-butyl)-4-(2,4-difluorophenyl)pyrrolidine-3-carbonyl)-5-(morpholine-4-carbonyl)pyrrolidin-3-yl)-N-(4,4-dimethylcyclohexyl)acetamide hydrochloride] gave a Ki at MC4R [1] of 1.4 µM. Moreover, the “Difference in weight change rate to vehicle” value in experiment [2] (Day 12, 10 mg/kg) was −4.8%; in experiment [2] (Day 12, 30 mg/kg), −4.0%. In addition, at MC4R [3], the EC50 was 0.0175 µM.

In the case of `CC(=O)N(C1CCC(C)(C)CC1)[C@H]1C[C@@H](C(=O)N2CCOCC2)N(C(=O)[C@@H]2CN(C(C)(C)C)C[C@H]2c2ccc(Cl)cc2)C1.Cl` [Comparative Example 2 (A96), N-((3S,5S)-1-((3S,4R)-1-(tert-butyl)-4-(4-chlorophenyl)pyrrolidine-3-carbonyl)-5-(morpholine-4-carbonyl)pyrrolidin-3-yl)-N-(4,4-dimethylcyclohexyl)acetamide hydrochloride], on MC4R [1], the inhibitory constant (Ki) turned out to be 0.36 µM. Also, the “Difference in weight change rate to vehicle” value in experiment [2] (Day 12, 10 mg/kg) was −0.2%; in experiment [2] (Day 12, 30 mg/kg), −7.1%. On MC4R [3], this molecule gave an EC50 of 0.00548 µM.

Turning to `CC(C)C(=O)N([C@H]1C[C@@H](C(=O)N2CCOCC2)N(C(=O)[C@@H]2CN(C(C)(C)C)C[C@H]2c2ccc(Cl)cc2)C1)[C@H]1CC[C@@H](C)CC1.Cl` [Example 1, N-((3S,5S)-1-((3S,4R)-1-(tert-butyl)-4-(4-chlorophenyl)pyrrolidine-3-carbonyl)-5-(morpholine-4-carbonyl)pyrrolidin-3-yl)-N-((1s,4R)-4-methylcyclohexyl)isobutyramide hydrochloride], on MC4R [1], the affinity, expressed as Ki, was 0.065 µM. Moreover, the EC50 on MC4R [3] stood at 0.000562 µM.
